Laboratory results published in BindingDB's records for patent US20260001888 (Merck Sharp & Dohme, 2026).

Target: High affinity cGMP-specific 3',5'-cyclic phosphodiesterase 9A (Homo sapiens, UniProt O76083)
Assay: PDE9 Inhibitory Activity Assay
Description: Human PDE9 (PDE9A2, GenBank Accession No. NM_001001567), full length with N-terminal GST tag, was purchased from BPS Bioscience. The fluorescence polarization assay for cyclic nucleotide phosphodiesterases was performed using an IMAP FP kit supplied by Molecular Devices, Sunnyvale, CA (product #R8139). IMAP technology has been applied previously to phosphodiesterase assays (Huang, W., et al., J. Biomol Screen, 2002, 7:215). Assays were performed at room temperature in 384-well microtiter plates with an incubation volume of 20.2 μL. Solutions of test compounds were prepared in DMSO and serially diluted with DMSO to yield 8 μL of each of 10 solutions differing by 3-fold in concentration, at 32 serial dilutions per plate. 100% inhibition is determined using a known PDE9 inhibitor, such as 1-(2-chlorophenyl)-6-[(2R)-3,3,3-trifluoro-2-methylpropyl]-1,5-dihydro-4H-pyrazolo[3,4-d]pyrimidine-4-one (BAY 73-6691) (Wunder et al, Mol. Pharmacol., 2005, 68 (6): 1775-81), (6-[(3S,4S)-4-methyl-1-(pyrimidin-2-ylmethyl) pyrrolidin-3-yl]-1-(tetrahydro-2H-pyran-4-yl)-1,5-dihydro-4H-pyrazolo[3,4-d]pyrimidin-4-one (PF-04447943) (Wager et al., ACS Chemical Neuroscience, 2010, 1:435-449). 0% of inhibition is determined by using DMSO (1% final concentrations). A Labcyte Echo 555 (Labcyte, Sunnyvale, CA) is used to dispense 200 nL from each well of the titration plate to the 384 well assay plate. Human PDE9A2 membrane preps were diluted to 1 ng/ml. […] PDE9 enzyme mix and compounds were mixed and incubated at room temperature for 30 min. Following which, FAMcGMP substrate was added, shaken and incubated for an additional 60 min at room temperature. The final concentration of human PDE9 membrane preparations were 0.5 ng/ml. The final concentration of FAM-cGMP was 50 nM. After the incubation period, the enzymatic reaction was stopped by addition of binding solution (IMAP-FP, Molecular Devices, comprised of 80% Solution A, 20% Solution B and a 1:600 dilution of binding reagent) to each well. The plates were shaken then incubated at room temperature for 1 h prior to determining the fluorescence polarization (mP) using a Perkin Elmer En Vision™ plate reader (Waltham, MA).

High affinity cGMP-specific 3',5'-cyclic phosphodiesterase 9A, sequence (O76083 whole entry): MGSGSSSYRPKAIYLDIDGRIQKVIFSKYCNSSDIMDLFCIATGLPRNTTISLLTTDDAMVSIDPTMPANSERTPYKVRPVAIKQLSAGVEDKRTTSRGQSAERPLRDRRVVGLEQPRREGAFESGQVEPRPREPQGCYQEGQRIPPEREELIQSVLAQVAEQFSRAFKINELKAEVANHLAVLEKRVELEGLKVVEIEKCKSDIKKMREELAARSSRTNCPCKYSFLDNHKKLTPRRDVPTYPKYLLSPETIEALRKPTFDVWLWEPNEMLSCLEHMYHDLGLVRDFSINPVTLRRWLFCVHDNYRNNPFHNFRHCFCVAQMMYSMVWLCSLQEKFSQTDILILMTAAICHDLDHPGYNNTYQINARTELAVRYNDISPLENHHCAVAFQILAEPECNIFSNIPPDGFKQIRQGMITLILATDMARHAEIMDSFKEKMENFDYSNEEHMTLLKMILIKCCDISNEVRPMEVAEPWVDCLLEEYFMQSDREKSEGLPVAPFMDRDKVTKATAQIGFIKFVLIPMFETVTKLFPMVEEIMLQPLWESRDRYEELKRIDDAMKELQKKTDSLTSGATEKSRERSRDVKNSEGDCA

Ki [nM] | SMILES
1.06 | CCC(c1ncc(OC(F)(F)F)cn1)N(C)c1nc2c(c(C#N)nn2C(C)c2ccc(C(F)(F)F)nc2)c(=O)[nH]1 (single isomer, unassigned; form 2) [US20260001888, Example 60]
50.7 | CCC(c1ncc(OC(F)(F)F)cn1)N(C)c1nc2c(c(C#N)nn2C(C)c2ccc(C(F)(F)F)nc2)c(=O)[nH]1 (single isomer, unassigned; form 4) [US20260001888, Example 62]
12.1 | CCC(c1ncc(OC(F)(F)F)cn1)N(C)c1nc2c(c(C#N)nn2C(C)c2ccc(C(F)(F)F)nc2)c(=O)[nH]1 (single isomer, unassigned; form 1) [US20260001888, Example 59]
0.17 | CCC(c1ncc(OC(F)(F)F)cn1)N(C)c1nc2c(c(C#N)nn2C(C)c2ccc(C(F)(F)F)nc2)c(=O)[nH]1 (single isomer, unassigned; form 3) [US20260001888, Example 61]
